A short description of data set [1]: Kinetic inertness (transmetalation by Zn(II) in phosphate buffer). The following applies: four equivalents of Zn^2+ in phosphate buffer (pH=7), 310 K. In kind it is physicochemical. From the text:
Shortly after the first confirmed clinical cases of nephrogenic systemic fibrosis (NSF), increased efforts have been made to design agents with high thermodynamic stability and kinetic inertness (Kallen et al., 2008; Reilly, 2008; Rofsky et al., 2008; Wiginton et al., 2008; Abujuden et al., 2009). The sensors shown here are very stable macrocyclic DO3A-monoamide derivatives with reported log KML>20. However, given that the agents reported here also have a high affinity for Zn^2+ ions, and Zn^2+ has been implicated as the major competing ion for transmetalation of Gd^3+ agents derived from linear polyamine ligands, the kinetic rate of Gd^3+ release is arguably the most critical factor in determining in vivo toxicity (Laurent et al., 2010). Using a previously published method (Laurent et al., 2010) consisting of incubating each agent with four equivalents of Zn^2+ in phosphate buffer (pH=7), we compared the kinetic stability of the agents reported here with the FDA-approved agent Magnevist® (GdDTPA, cf. FIG. 7).
Kinetic inertness was determined according to published procedures with minor modifications (Laurent et al., 2010; Silverio et al., 2009). Stock solutions of phosphate buffer (67 mM, pH=7.4), Gd(III) chelates (10 mM) and ZnCl2 (231 mM) were prepared first. Calculated volumes of stock solutions or water were pipetted into small glass vials to obtain a test solution of 300 μL with 30 mM phosphate, 1.5 mM Gd(III) chelate, and 6.0 mM Zn(II). Samples were measured 15 minutes after the sample temperature stabilized at 310 K. During the entire experiment, the samples inside the NMR tubes were kept in an incubator at 310 K. The T1 of the solutions was determined at 310 K and 0.47 T (20 MHz) at various time points within 7 days. As a reference, GdDTPA was analyzed under the same conditions. The R1^P relaxation rate is obtained by subtracting the diamagnetic contribution of the water relaxation (0.28 s-1) from the observed relaxation rate R1=(1/T1).

The nature of data set [2]: 17O NMR of DyL4 without and with HSA. The class given is physicochemical. The following applies: no HSA. The protocol:
To gain more insights into this process, further ^17O NMR experiments performed using DyL4 in the presence of 0.6 mM HSA (Dy^3+ was substituted for Gd^3+ for improved fitting purposes, FIGS. 2 and 3 and Table 4).
^17O NMR experiments were performed at 9.4 T on a Bruker AVANCE III NMR spectrometer. The temperature was regulated by air flow controlled by a Bruker VT unit. The samples ([Gd^3+]=25 mM; [Dy^3+]=1 mM) were prepared in ^17O enriched water (10%) with the pH being maintained at 7.4 with 100 mM Tris buffer. The sample was loaded into a 18 μL spherical bulb (Wilmad-Lab Glass, Vineland, NJ) and placed inside a 5 mm NMR tube containing 400 μL of water to eliminate any susceptibility effects. Longitudinal relaxation rates (1/T1) were obtained by the inversion recovery method and transverse relaxation rates (1/T2) were obtained by the Carr-Purcell—Meiboom—Gill spin echo technique. The acidified water (pH=3.0) containing 10% enriched ^17O water was used as a reference for the measurements. For the DyL4 complexes (no HSA and with HSA+Zinc), acidified water solutions and 1 mM LaL4+3 mM HSA with zinc (1:1) were used as the corresponding references. The corresponding fittings were performed with the Scientist 3.0 software (Micromath®).
With Dy^3+ solutions the correlation time for dipolar relaxation is governed by the electron spin relaxation time Te which is much shorter than Tm and τR. For this reason, ^17O transversal relaxation rates predominantly originates from Curie spin relaxation (Caravan et al., 2001; Karimi and Helm, 2016). The Curie relaxation is described by Fries (Vigouroux et al., 1999) and simplified by the Swift-Connick equations (Swift and Connick, 1962): […]
The water exchange rates kex and the chemical shift differences (inner-sphere water and bulk water) Δωm can be expressed as: […]
C1 and C2 are empirical constants described by Lewis and Bleaney (1972), and represent the relative contributions of the contact and pseudocontact terms. B is the external magnetic field.

In the case of `O=C(O)CN1CCN(CC(=O)O)CCN(CC(=O)NCCN(Cc2ccccn2)Cc2ccccn2)CCN(CC(=O)O)CC1` [GdL1], in data set [1], the “kinetic stability against transmetalation” value (shortened to “kinetic stability”) is recorded as “kinetically inert”.

For the molecule `O=C(O)CN1CCN(CCC(=O)NCCN(Cc2ccccn2)Cc2ccccn2)CCN(CC(=O)O)CCN(CC(=O)O)CC1` [GdL2], in data set [1], the “kinetic stability” value is reported as “kinetically inert”. In addition, in data set [2], the “1/T2m^298” value is 600 ± 20 10^4 s^−1, the A1 is −73 ± 2 10^6rad s^−1K T^−1, the A2 is recorded as 0.3 ± 0.1 10^9rad s^−1K^2 T^−1 and the ER worked out at 9.56 ± 2.39 kcal/mol. Moreover, the “ΔH^‡” value in data set [2] was 9.87 ± 0.12 kcal/mol. In addition, in data set [2] (17O enriched water, TRIS buffered), the “kex^298” value is listed as 4.3 ± 0.1 10^6 s^−1.

In the case of `O=C(O)CN1CCN(CC(=O)O)CCN(CC(=O)NCCN(CCc2ccccn2)Cc2ccccn2)CCN(CC(=O)O)CC1` [GdL4], the “kinetic stability” value in data set [1] is on record as “kinetically inert”.

Source of the values: patent publication US11713305B2, “Zinc sensors for in vivo imaging of beta-cell function by MRI” (The Board of Regents of the University of Texas System, priority 2017, dated 2023).
